Measured values: patent US20100184809A1, “Heterocyclic FXR Binding Compounds” (PHENEX PHARMACEUTICALS AG, priority 2006, published 2010)
Values after ≈ are worked out from the molar mass of the structure shown.

Columns and labels:
[1] = target: T1, human FXRalpha ligand binding domain (LBD) (Homo sapiens, UniProt Q96RI1); experiment: FRET activity assay (ligand mediated cofactor peptide interaction, LANCE); assay type: biochemical; settings: GST-FXR-LBD / biotinylated SRC-1 peptide (676-700)
T1 construct: made in house; host or cells: E. coli BL21(DE3), vector pDEST15
T1 sequence (Q96RI1 187-472 isoform Q96RI1-2): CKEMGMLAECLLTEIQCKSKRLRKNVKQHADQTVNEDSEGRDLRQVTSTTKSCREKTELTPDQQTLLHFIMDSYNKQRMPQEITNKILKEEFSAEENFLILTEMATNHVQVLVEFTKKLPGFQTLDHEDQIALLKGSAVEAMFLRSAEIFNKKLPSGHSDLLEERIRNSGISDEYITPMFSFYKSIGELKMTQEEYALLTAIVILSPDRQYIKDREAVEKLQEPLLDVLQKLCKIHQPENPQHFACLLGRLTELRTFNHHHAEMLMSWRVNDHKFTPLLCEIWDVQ
Protocol: Determination of a ligand mediated cofactor peptide interaction to quantify ligand binding to the nuclear receptor Farnesoid X Receptor (FXR) was performed as follows:
Preparation of human farnesoid X receptor (FXR) alpha ligand binding domain: The human FXRalpha ligand binding domain (LBD) was expressed in E. coli strain BL21(DE3) as an N-terminally glutathione-[…] (GST) tagged fusion protein. The DNA encoding the FXR ligand binding domain was cloned into vector pDEST15 (Invitrogen). Expression was under control of an IPTG inducible T7 promoter. The amino acid boundaries of the ligand binding domain were amino acids 187-472 of Database entry NM_005123 (RefSeq). Expression and purification of the FXR-LBD: An overnight preculture of a transformed E. coli strain was diluted 1:20 in LB-Ampicillin medium and grown at 30° C. to an optical density of OD600=0.4-0.6. Gene expression was then induced by addition of 0.5 mM IPTG. Cells were incubated an additional 6 h at 30° C., 180 rpm. Cells were collected by centrifugation (7000×g, 7 min, room temperature). Per liter of original cell culture, cells were resuspended in 10 ml lysis buffer (50 mM Glucose, 50 mM Tris pH 7.9, 1 mM EDTA and 4 mg/ml lysozyme) and left on ice for 30 min. Cells were then subjected to sonication and cell debris removed via centrifugation (22000×g, 30 min, 4° C.). Per 10 ml of supernatant 0.5 ml prewashed Glutathione 4B sepharose slurry (Qiagen) was added and the suspension kept slowly rotating for 1 h at 4° C. Glutathione 4B sepharose beads were pelleted by centrifugation (2000 g, 15 sec, 4° C.) and washed twice in wash buffer (25 mM Tris, 50 mM KCl, 4 mM MgCl2 and 1M NaCl). The pellet was resuspended in 3 ml elution buffer per liter of original culture (elution buffer: 20 mM Tris, 60 mM KCl, 5 mM MgCl2 and 80 mM glutathione added immediately prior to use as powder). The suspension was left rotating for 15 min at 4° C., the beads pelleted and eluted again with half the volume of elution buffer than the first time. The eluates were pooled and dialysed overnight in 20 mM Hepes buffer (pH 7.5) containing 60 mM KCl, 5 mM MgCl2 as well as 1 mM dithiothreitol and 10% (v/v) glycerol. The protein was analysed by SDS-Page.
The method measures the ability of putative ligands to modulate the interaction between the purified bacterial expressed FXR ligand binding domain (LBD) and a synthetic biotinylated peptide based on residues 676-700 of SRC-1 (LCD2, 676-700). The sequence of the peptide used was B-[…]-COOH where the N-terminus was biotinylated (B). The ligand binding domain (LBD) of FXR was expressed as fusion protein with GST in BL-21 cells using the vector pDEST15. Cells were lysed by sonication, and the fusion proteins purified over glutathione sepharose (Pharmacia) according to the manufacturers instructions. For screening of compounds for their influence on the FXR-peptide interaction, the Perkin Elmer LANCE technology was applied. This method relies on the binding dependent energy transfer from a donor to an acceptor fluorophor attached to the binding partner of interest. For ease of handling and reduction of background from compound fluorescence LANCE technology makes use of generic fluorophore labels and time resolved detection Assays were done in a final volume of 2 5 μl in a 384 well plate, in a Tris-based buffer (20 mM Tris-HCl pH 7,5; 60 mM KCl, 5 mM MgCl2; 35 ng/μl BSA), containing 20-60 ng/well recombinantly expressed FXR-LBD fused to GST, 200-600 nM N-terminally biotinylated peptide, representing SRC1 aminoacids 676-700, 200 ng/well Streptavidin-xIAPC conjugate(Prozyme) and 6-10 ng/well Eu W1024 antiGST (Perkin Elmer). DMSO content of the samples was kept at 1%. After generation of the assay mix and diluting the potentially FXR modulating ligands, the assay was equilibrated for one hour in the dark at room temperature in FIA-plates black 384 well (Greiner). […]

[2] = Plasma protein binding assay (equilibrium dialysis); assay type: in vitro ADME; settings: 37° C., extrapolated fraction unbound
Protocol: Equilibrium dialysis is used to determine the extent of binding of a compound to plasma proteins. A semi-permeable membrane separates a protein-containing compartment from a protein-free compartment. The system is allowed to equilibrate at 37° C. The test compound present in each compartment is quantified by LC-MS/MS. The extent of binding is reported as a fraction unbound (fu) value which is calculated as fu=1−(PC−PF)/PC. PC=Test compound concentration in protein-containing compartment. PF=Test compound concentration in protein-free compartment. In addition to using whole plasma, the plasma protein binding assay can be performed using two other ratios of plasma (10% or 50% plasma in buffer v/v). The following equations are used to convert from a fraction unbound at 10% or 50% to a fraction unbound at 100%: […]

[3] = Rat microsomal stability assay; assay type: in vitro ADME; settings: liver microsomes, 37° C., NADPH, 45 minute, read-out: Rat liver microsome clearance
Protocol: Compound stability towards rat liver microsomes was determined as follows: The microsomes are incubated with the test compound at 37° C. in the presence of the co-factor, NADPH, which initiates the reaction. The reaction is terminated by the addition of methanol. Following centrifugation, the supernatant is analysed on the LC-MS/MS. The disappearance of test compound is monitored over a 45 minute time period. The In peak area ratio (compound peak area/internal standard peak area) is plotted against time and the gradient of the line determined. Finally, Intrinsic clearance CLint is computed by the following equations: elimination rate konstant (k)=−gradient; t1/2 (min)=0.693/k; V (μl/mg)=volume of incubation (μl)/protein in incubation (mg); CLint (μl/min/mg protein)=V*0.693/t1/2.

[4] = Aqueous solubility assay, Protocol A, nephelometry method; assay type: physicochemical; settings: PBS with 5% DMSO, aqueous with cosolvent or surfactant or cyclodextrin, kinetic from dmso stock, PBS pH 7.4, 5% DMSO, 23° C., 24 hours, read-out: Aqueous solubility pH 7.4
Protocol: Aqueous solubility of compounds was determined by nephelometry or by the shake-flask method as follows:
Protocol A, nephelometry method:
Solubility of compounds was measured in PBS (pH 7.4), 5% DMSO at 23° C. Nepheloskan Ascent (Thermo Electron Corporation) nephelometer was used for measurement of light scattering. Tested compounds were dissolved in DMSO to 10 mM. Prior to measurement the compounds were further diluted with PBS in the wells to final compound concentrations of 100, 70, 50, 35, 25, 17, 12 and <10 μg/ml.
The plates were incubated at room temperature for 24 hours to reach equilibrium and the scattered light was measured. Assay validation: Aqueous solubility of acetylsalicylic acid was determined to validate the assay.
The following compounds of Table 2 exemplify such solubility with “−−” meaning solubility<2 μM, “+” meaning 2 μM solubility 100 μM and “++” meaning solubility

Caco-2 permeability = assay type: in vitro ADME; settings: human, apical to basolateral
Protocol: Caco-2 cells are widely used as an in vitro model for predicting human drug absorption. The Caco-2 cell line is derived from a human colorectal carcinoma, and when cultured, the cells spontaneously differentiate into monolayers of polarised enterocytes. The cells are seeded on Transwell™ plates and form a confluent monolayer over 20 days prior to the experiment. On day 20, the test compound is added to the apical side of the membrane and the transport of the compound across the monolayer is monitored over a 2 hour time period. To study drug efflux, it is also necessary to investigate transport of the compound from the basolateral compartment to the apical compartment. The permeability coefficient (Papp) is calculated from the following equation: […]
Where dQ/dt is the rate of permeation of the drug across the cells, CO is the donor compartment concentration at time zero and A is the area of the cell monolayer.

Row | Compound | IC50 [1] [nM] | fraction unbound [2] | microsomal CLint [3] [µL/min/mg] | melting point | solubility at 24 h [4] [µM] | Papp A→B at 2 h (Caco-2 permeability) [×10⁻⁶ cm/s]
1 | Cc1cc(OCc2c(-c3c(Cl)cccc3Cl)noc2C(C)C)cnc1NC(=O)c1ccc(C(=O)O)cc1 [Example 19, N-(5-[3-(2,6-Dichloro-phenyl)-5-isopropyl-isoxazol-4-ylmethoxy]-3-methyl-pyridin-2-yl)-terephthalamic acid] | ≤ 1000 | 0.003 | 57 | 218 °C | – | –
2 | CC(C)c1onc(-c2c(Cl)cccc2Cl)c1COc1ccc(NC(=O)c2cccc(C(=O)O)c2)c(C(F)(F)F)n1 [Example 21] | ≤ 1000 | – | – | 153.8 to 154.8 °C | > 100 | –
3 | CC(C)c1onc(-c2c(Cl)cccc2Cl)c1COc1ccc(NC(=O)c2ccc(C(=O)O)cc2)c(C(F)(F)F)n1 [Example 6, N-{6-[3-(2,6-dichloro-phenyl)-5-isopropyl-isoxazol-4-ylmethoxy]-2-trifluoromethyl-pyridin-3-yl}-terephthalamic acid] | ≤ 1000 | 0.0005 | – | – | > 100 | 34
4 | Cc1cc(OCc2c(-c3c(Cl)cccc3Cl)noc2C(C)C)cnc1N(C)C(=O)c1ccc(C(=O)O)cc1 [Example 26, 4-((5-((3-(2,6-dichlorophenyl)-5-isopropylisoxazol-4-yl)methoxy)-3-methylpyridin-2-yl)(methyl)carbamoyl)benzoic acid] | 1000 to 10000 | – | 55 | – | – | –
5 | CC(C)c1onc(-c2c(Cl)cccc2Cl)c1COc1ccc(N(C)C(=O)c2ccc(C(=O)N(C)C)cc2)c(C(F)(F)F)n1 [Example 24] | ≤ 1000 | 0.0009 | – | 166.8 to 167.8 °C | – | 46
6 | CC(C)c1nnn(-c2c(Cl)cccc2Cl)c1COc1ccc(N(C)C(=O)c2ccc(C(=O)O)cc2)c(C(F)(F)F)n1 [Example 29, 4-((6-((1-(2,6-Dichlorophenyl)-4-isopropyl-1H-1,2,3-triazol-5-yl)methoxy)-2-(trifluoromethyl)pyridin-3-yl)(methyl)carbamoyl)benzoic acid] | ≤ 1000 | – | – | 218 to 219 °C | – | –
7 | Cc1nc(OCc2c(C(C)C)nnn2-c2c(Cl)cccc2Cl)ccc1N(C)S(=O)(=O)c1ccc(C(=O)O)cc1 [Example 30, 4-(N-(6-((1-(2,6-dichlorophenyl)-4-isopropyl-1H-1,2,3-triazol-5-yl)methoxy)-2-methylpyridin-3-yl)-N-methylsulfamoyl)benzoic acid] | ≤ 1000 | – | – | 127.8 to 128.8 °C | – | –
8 | Cc1onc(-c2c(Cl)cccc2Cl)c1COc1ccc(NC(=O)c2cccc(C(=O)O)c2)cn1 [Example 15, 3-(6-((3-(2,6-dichlorophenyl)-5-methylisoxazol-4-yl)methoxy)pyridin-3-ylcarbamoyl)benzoic acid] | 1000 to 10000 | 0.0003 | 149 | – | – | –
9 | CC(C)c1onc(-c2c(Cl)cccc2Cl)c1COc1ccc(N(C)C(=O)c2ccc(C(N)=O)cc2)c(C(F)(F)F)n1 [Example 23, N^1-(6-((3-(2,6-Dichlorophenyl)-5-isopropylisoxazol-4-yl)methoxy)-2-(trifluoromethyl)pyridin-3-yl)-N^1-methylterephthalamide] | ≤ 1000 | – | – | 229 °C (dec.) | 2 to 100 (≈ 1.21 to 60.7 µg/mL) | –
10 | Cc1onc(-c2c(Cl)cccc2Cl)c1COc1ccc(NC(=O)c2cccc(C(=O)O)c2)cc1 [Compound C, reference compound] | – | 0.0001 | – | – | – | 0.6
11 | CC(C)c1onc(-c2c(Cl)cccc2Cl)c1COc1ccc(NCc2ccc(C(=O)O)cc2)c(C(F)(F)F)n1 [Example 27, 4-((6-((3-(2,6-Dichlorophenyl)-5-isopropylisoxazol-4-yl)methoxy)-2-(trifluoromethyl)pyridin-3-ylamino)methyl)benzoic acid] | ≤ 1000 | – | – | 259.1 to 260.1 °C | – | –
12 | CC(C)c1onc(-c2c(Cl)cccc2Cl)c1COc1ccc(N(C)S(=O)(=O)c2ccc(C(=O)O)cc2)c(C(F)(F)F)n1 [Example 9, 4({6-[3-(2,6-Dichloro-phenyl)-5-isopropyl-isoxazol-4-ylmethoxy]-2-trifluoromethyl-pyridin-3-yl}-methyl-sulfamoyl)-benzoic acid] | ≤ 1000 | – | – | – | – | –
